Test results: patent US20240083897A1, “GCN2 MODULATING COMPOUNDS AND USES THEREOF” (HiberCell, Inc., priority 2021, published 2024)
Like-named read-outs stand apart in the source and are kept apart here.

Molecular target: GCN2 (Homo sapiens (Human), UniProt Q9P2K8)
Assay: TR-FRET biochemical assay for inhibition of GCN2
[1] = GCN2 2 nM, 100 nM GFP-eIF2a, 150 μM ATP, TR-FRET

Sequence of GCN2 (Q9P2K8 whole entry): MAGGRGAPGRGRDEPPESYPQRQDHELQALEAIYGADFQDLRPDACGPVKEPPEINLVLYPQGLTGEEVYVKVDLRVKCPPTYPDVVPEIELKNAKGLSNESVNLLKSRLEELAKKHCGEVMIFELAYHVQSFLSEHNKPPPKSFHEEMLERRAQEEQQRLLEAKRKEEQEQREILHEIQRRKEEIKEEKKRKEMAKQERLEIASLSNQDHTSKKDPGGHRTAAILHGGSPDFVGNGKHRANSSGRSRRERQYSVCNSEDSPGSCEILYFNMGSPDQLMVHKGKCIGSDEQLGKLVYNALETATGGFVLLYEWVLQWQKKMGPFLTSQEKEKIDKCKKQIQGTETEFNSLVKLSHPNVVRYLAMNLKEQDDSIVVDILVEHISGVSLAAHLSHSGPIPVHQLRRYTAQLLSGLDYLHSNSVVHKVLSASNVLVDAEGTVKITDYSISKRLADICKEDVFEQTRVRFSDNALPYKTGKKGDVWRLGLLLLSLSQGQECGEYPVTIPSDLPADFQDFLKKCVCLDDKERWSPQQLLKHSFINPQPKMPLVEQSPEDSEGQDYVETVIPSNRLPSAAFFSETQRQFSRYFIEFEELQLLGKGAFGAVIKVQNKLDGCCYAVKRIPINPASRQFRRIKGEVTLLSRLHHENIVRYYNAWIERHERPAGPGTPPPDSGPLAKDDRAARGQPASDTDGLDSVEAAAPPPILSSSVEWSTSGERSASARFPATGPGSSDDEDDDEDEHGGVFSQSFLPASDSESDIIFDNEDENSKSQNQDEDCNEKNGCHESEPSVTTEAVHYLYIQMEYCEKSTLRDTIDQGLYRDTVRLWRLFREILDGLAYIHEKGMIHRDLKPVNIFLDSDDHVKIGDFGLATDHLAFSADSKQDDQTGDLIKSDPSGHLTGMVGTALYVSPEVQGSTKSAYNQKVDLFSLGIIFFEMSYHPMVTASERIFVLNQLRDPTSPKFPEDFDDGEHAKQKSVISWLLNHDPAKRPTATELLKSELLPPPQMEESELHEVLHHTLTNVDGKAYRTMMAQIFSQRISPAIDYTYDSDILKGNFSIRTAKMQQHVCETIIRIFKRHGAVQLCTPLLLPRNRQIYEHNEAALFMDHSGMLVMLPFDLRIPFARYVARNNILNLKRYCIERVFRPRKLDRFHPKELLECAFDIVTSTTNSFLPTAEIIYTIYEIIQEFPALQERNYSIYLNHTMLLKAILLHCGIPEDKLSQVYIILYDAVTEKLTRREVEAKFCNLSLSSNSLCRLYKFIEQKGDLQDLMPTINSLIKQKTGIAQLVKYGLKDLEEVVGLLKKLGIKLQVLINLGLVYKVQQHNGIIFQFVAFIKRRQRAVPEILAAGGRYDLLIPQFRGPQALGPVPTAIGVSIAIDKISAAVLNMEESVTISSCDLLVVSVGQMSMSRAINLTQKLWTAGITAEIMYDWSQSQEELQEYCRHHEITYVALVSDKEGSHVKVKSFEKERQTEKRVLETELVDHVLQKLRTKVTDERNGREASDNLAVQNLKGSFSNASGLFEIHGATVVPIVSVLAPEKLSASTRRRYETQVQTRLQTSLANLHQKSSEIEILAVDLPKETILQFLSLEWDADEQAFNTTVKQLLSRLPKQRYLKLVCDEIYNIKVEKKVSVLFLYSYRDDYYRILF

| SMILES | IC50 [1] [nM] | IC50 [nM] |
| --- | --- | --- |
| COc1ncc(Cl)cc1S(=O)(=O)Nc1ccc(F)c(-c2cn3cnc(C(=O)Nc4cnoc4)c3cn2)c1F [Compound 174, 6-[3-(5-chloro-2-methoxypyridine-3-sulfonamido)-2,6-difluorophenyl]-N-(1,2-oxazol-4-yl)imidazo[1,5-a]pyrazine-1-carboxamide] | < 50 |  |
| COc1ncc(Cl)cc1S(=O)(=O)Nc1ccc(F)c(-c2cn3cnc(C(=O)NCCN4CCOCC4)c3cn2)c1F [Compound 175, 6-[3-(5-chloro-2-methoxypyridine-3-sulfonamido)-2,6-difluorophenyl]-N-[2-(morpholin-4-yl)ethyl]imidazo[1,5-a]pyrazine-1-carboxamide] | < 50 |  |
| CNC(=O)c1ncn2cc(-c3c(F)ccc(NS(=O)(=O)c4cc(Cl)cnc4OCC(C)C)c3F)ncc12 [Compound 176, 6-[3-[5-chloro-2-(2-methylpropoxy)pyridine-3-sulfonamido]-2,6-difluorophenyl]-N-methylimidazo[1,5-a]pyrazine-1-carboxamide] |  | 500 to 1000 |
| COc1ncc(F)cc1S(=O)(=O)Nc1ccc(F)c(-c2cn3cnc(-c4[nH]cnc4C4CC4)c3cn2)c1F [Compound 177, N-[3-[1-(5-cyclopropyl-3H-imidazol-4-yl)imidazo[1,5-a]pyrazin-6-yl]-2,4-difluorophenyl]-5-fluoro-2-methoxypyridine-3-sulfonamide] |  | 50 to 500 |
| COc1ncc(F)cc1S(=O)(=O)Nc1ccc(F)c(-c2cn3cnc(-c4nc(Cc5ccccc5)c[nH]4)c3cn2)c1F [Compound 178, N-[3-[1-(4-benzyl-1H-imidazol-2-yl)imidazo[1,5-a]pyrazin-6-yl]-2,4-difluorophenyl]-5-fluoro-2-methoxypyridine-3-sulfonamide] | < 50 |  |
| COc1ncc(Cl)cc1S(=O)(=O)Nc1ccc(F)c(-c2cn3cnc(C(=O)NCCN(C)C)c3cn2)c1F [Compound 179, 6-[3-(5-chloro-2-methoxypyridine-3-sulfonamido)-2,6-difluorophenyl]-N-[2-(dimethylamino)ethyl]imidazo[1,5-a]pyrazine-1-carboxamide] |  | 50 to 500 |
| COc1ncc(Cl)cc1S(=O)(=O)Nc1ccc(F)c(-c2cn3cnc(C(=O)NCCN4CCCC4=O)c3cn2)c1F [Compound 180, 6-[3-(5-chloro-2-methoxypyridine-3-sulfonamido)-2,6-difluorophenyl]-N-[2-(2-oxopyrrolidin-1-yl)ethyl]imidazo[1,5-a]pyrazine-1-carboxamide] |  | 50 to 500 |
| COc1ncc(Cl)cc1S(=O)(=O)Nc1ccc(F)c(-c2cn3cnc(C(=O)Nc4ccc(CN(C)C)cc4)c3cn2)c1F [Compound 181, 6-[3-(5-chloro-2-methoxypyridine-3-sulfonamido)-2,6-difluorophenyl]-N-[4-[(dimethylamino)methyl]phenyl]imidazo[1,5-a]pyrazine-1-carboxamide] | < 50 |  |
| CNC(=O)c1ncn2cc(-c3c(F)ccc(NS(=O)(=O)c4cc(Cl)cnc4OCC(F)(F)F)c3F)ncc12 [Compound 182, 6-[3-[5-chloro-2-(2,2,2-trifluoroethoxy)pyridine-3-sulfonamido]-2,6-difluorophenyl]-N-methylimidazo[1,5-a]pyrazine-1-carboxamide] |  | 500 to 1000 |
| CNC(=O)c1ncn2cc(-c3c(F)ccc(NS(=O)(=O)c4cc(Cl)cnc4OCc4ccccc4)c3F)ncc12 [Compound 183, 6-[3-[2-(benzyloxy)-5-chloropyridine-3-sulfonamido]-2,6-difluorophenyl]-N-methylimidazo[1,5-a]pyrazine-1-carboxamide] | > 1000 |  |
| CNC(=O)c1ncn2c(F)c(-c3c(F)ccc(NS(=O)(=O)c4cc(F)cnc4C)c3F)ncc12 [Compound 184, 6-[2,6-difluoro-3-(5-fluoro-2-methylpyridine-3-sulfonamido)phenyl]-5-fluoro-N-methylimidazo[1,5-a]pyrazine-1-carboxamide] |  | 50 to 500 |
| COc1ncc(F)cc1S(=O)(=O)Nc1ccc(F)c(-c2ccc3c(-c4nc5ccc(N6CCN(C)CC6)cc5[nH]4)ncn3c2)c1F [Compound 185, N-(2,4-difluoro-3-[1-[5-(4-methylpiperazin-1-yl)-3H-1,3-benzodiazol-2-yl]imidazo[1,5-a]pyridin-6-yl]phenyl)-5-fluoro-2-methoxypyridine-3-sulfonamide] | < 50 |  |
| CNC(=O)c1ncn2c(F)c(-c3c(F)ccc(NS(=O)(=O)c4cc(Cl)cnc4C)c3F)ncc12 [Compound 186, 6-[3-(5-chloro-2-methylpyridine-3-sulfonamido)-2,6-difluorophenyl]-5-fluoro-N-methylimidazo[1,5-a]pyrazine-1-carboxamide] | < 50 |  |
